From paper PMC6600263, “Neuroprotective Effects of Red Ginseng Saponins in Scopolamine-Treated Rats and Activity Screening Based on Pharmacokinetics” (Molecules, 2019)
Where two headings read alike, the source gives them in different places.

Assays:
[1] = pharmacokinetics of 16 ginsenosides in rat plasma after oral administration of RGS; format: in vivo
Description: The SD rats were randomly allocated into two groups, i.e., normal group and SA-treated group.
Blood samples were collected from the postocular vein at 0.083, 0.25, 0.5, 1, 2, 3, 4, 6, 8, 12 and 24 h after SA injection. Blood sample immediately was centrifuged at 18,000 rpm for 10 min. Plasma was withdrawn (0.15 mL) and diluted with 0.3 mL of acetonitrile and 20 µL of the IS (6 µg/mL). After 30 min, the mixture was clarified by centrifugation at 18,000 rpm for 10 min at 4 °C. The supernatant was dried under a stream of N2, and the residue was dissolved in 0.1 mL of methanol and stored at −20 °C for further analysis.
The UPLC-MS/MS system (Waters Xeve TQ, Waters, Cork, Ireland) with a column C18 (ACQUITY, 1.7 μm, 2.1 × 50 mm, Waters, Cork, Ireland) were adopted at 35 °C. Water (A) and acetonitrile (B) were used as mobile phases at a flow rate of 0.4 mL/min. The treatment of elution was performed according to following pattern: 10% B for 0–5.0 min; 10→15% B for 5.0–8.0 min; 15→25% B for 8.0–12.0 min; 25→40% for 12.0–20.0 min; 40→50% B for 20.0–25.0 min; 50→65% B for 25.0–30.0 min. With regard to mass detection, the negative mode of electrospray ionization source was adopted. The optimized parameters of multiple reactions monitoring (MRM) system including collision energy, Q1 Pre Bias, Q3 Pre Bias, collision energy and MRM transition of the 16 ginsenosides are shown in Table 1.
Based on a non-compartmental method, WinNonlin software (Phoenix, version 6.1) was employed to calculate the pharmacokinetic parameters. The statistical difference between groups was analyzed by One-Way ANOVA analysis using SPSS Version 17.0. (SPSS Inc., Chicago, IL, USA). The difference between groups was regarded significant when p < 0.05. We first normalized the pharmacokinetic data and then visualized them based on principal component analysis (PCA).

[2] = test system: scopolamine-induced learning ability impairment; set-up: method as in PMID 24503167; settings: rats; cited from earlier work
[3] = test system: recognition deficits induced by cyproheptadine; set-up: method as in PMID 23717153; settings: rats; cited from earlier work
[4] = SD, rat, in vivo, po, 100 mg/kg

Compound | Cmax ([1]; SD, rat, plasma, po, 100 mg/kg, model (scopolamine 1 mg/kg i.p.-treated) rats, oral RGS single dose 100 mg/kg, plasma, mean ± S.D., n = 5, read-out: C Max) [ng/g] | MRT ([1]; SD, rat, plasma, po, 100 mg/kg, model (scopolamine 1 mg/kg i.p.-treated) rats, oral RGS single dose 100 mg/kg, plasma, mean ± S.D., n = 5, read-out: MRT) [h] | half-life ([1]; SD, rat, plasma, po, 100 mg/kg, model (scopolamine 1 mg/kg i.p.-treated) rats, oral RGS single dose 100 mg/kg, plasma, mean ± S.D., n = 5, read-out: T1/2 (converted)) [h] | Tmax ([1]; SD, rat, plasma, po, 100 mg/kg, model (scopolamine 1 mg/kg i.p.-treated) rats, oral RGS single dose 100 mg/kg, plasma, mean ± S.D., n = 5, read-out: T Max) [h] | Cmax ([1]; SD, rat, plasma, po, 100 mg/kg, normal rats, oral RGS single dose 100 mg/kg, plasma, mean ± S.D., n = 5, read-out: C Max) [ng/g] | MRT ([1]; SD, rat, plasma, po, 100 mg/kg, normal rats, oral RGS single dose 100 mg/kg, plasma, mean ± S.D., n = 5, read-out: MRT) [h] | half-life ([1]; SD, rat, plasma, po, 100 mg/kg, normal rats, oral RGS single dose 100 mg/kg, plasma, mean ± S.D., n = 5, read-out: T1/2 (converted)) [h] | Tmax ([1]; SD, rat, plasma, po, 100 mg/kg, normal rats, oral RGS single dose 100 mg/kg, plasma, mean ± S.D., n = 5, read-out: T Max) [h] | AUC 0-t ([1]; model (scopolamine 1 mg/kg i.p.-treated) rats, oral RGS single dose 100 mg/kg, plasma, mean ± S.D., n = 5) [ng·h/g] | AUC 0-t ([1]; normal rats, oral RGS single dose 100 mg/kg, plasma, mean ± S.D., n = 5) [ng·h/g] | effect on scopolamine-induced learning ability impairment [2] | C Max [1, 4] [ng/g] | MRT [1, 4] [h] | T1/2 [1, 4] [h] | Cmax ([1]; SD, rat, in vivo, po, 100 mg/kg, C Max) [ng/g] | MRT ([1]; SD, rat, in vivo, po, 100 mg/kg, MRT) [h] | half-life ([1]; SD, rat, in vivo, po, 100 mg/kg, T1/2) [h] | Tmax ([1]; SD, rat, in vivo, po, 100 mg/kg, T Max) [h] | effect on recognition deficits induced by cyproheptadine [3]
CC(C)=CCCC(C)(OC1OC(CO)C(O)C(O)C1O)C1CCC2(C)C1C(O)CC1C3(C)CCC(O)C(C)(C)C3C(OC3OC(CO)C(O)C(O)C3O)CC12C (stereo not shown) [Rg1] | 32.2 ± 2.1 | 16.5 ± 3.2 | 10.2 ± 1.2 | 4 ± 0.9 | 20.5 ± 2.5 | 15.6 ± 2.1 | 9.6 ± 1.5 | 4 ± 1.2 | 664.5 ± 15.2 | 568.9 ± 10.3 | improves | – | – | – | – | – | – | – | –
CC(C)=CCC[C@](C)(O)[C@H]1CC[C@]2(C)[C@@H]1[C@H](O)C[C@@H]1[C@@]3(C)CC[C@H](O)C(C)(C)[C@@H]3[C@@H](O[C@@H]3O[C@H](CO)[C@@H](O)[C@H](O)[C@H]3O[C@@H]3O[C@@H](C)[C@H](O)[C@@H](O)[C@H]3O)C[C@]12C [Rg2, Ginsenoside Rg2] | – | – | – | – | – | – | – | – | – | – | – | 26.3 ± 4.8 | 26.5 ± 3.6 | 18.9 ± 1.6 | 15.3 ± 5.6 | 22.3 ± 1.4 | 19.8 ± 2.5 | 1.5 ± 0.8 | improves
